In US20260234140A1, “PYRIDOPYRIMIDINE DERIVATIVE AND USE THEREOF” (SUNSHINE LAKE PHARMA CO., LTD., priority 2023, published 2026):

What was measured:
[1] = Pharmacokinetics experiment in SD rats; type: in vivo; conditions: male SD rats; for AUC(0-t) / Cmax / half-life / clearance / Vd: rat, plasma; for Vd: read-out: Vss
Protocol: Experiment 2: Pharmacokinetics Experiment
1) Preparation of the compound solutions of Example 1 and Example 17: The test compound was prepared into a solution using 10% dimethyl sulfoxide, 10% Kolliphor HS15 and 80% physiological saline; Preparation of the compound solution of Example 11: The compound to be tested is prepared into a solution with 5% dimethyl sulfoxide, 5% Kolliphor HS15 and 90% saline for oral administration or intravenous injection.
2) Male SD rats weighing 250-345 g were randomly divided into two groups. One group was intravenously injected with the test compound at a dose of 1.0 mg/kg, and the other group was orally administered with the test compound at a dose of 5.0 mg/kg. Blood was collected at 0.083, 0.25, 0.5, 1, 2, 5, 7 and 24 hours after administration.
3) A standard curve of an appropriate range was established according to the sample concentration, and the concentration of the test compound in the plasma sample was determined in the MRM mode using an AB SCIEX Q TRAP 4000 LC-MS/MS. The pharmacokinetic parameters were calculated using the non-compartmental model method using WinNonLin 6.3 software.

PD1/PD-L1 pathway = experiment: PD1/PD-L1 Blockade Bioassay, inhibition of the PD1/PD-L1 pathway at the cellular level (luciferase reporter, PD-1 Jukat T cells co-cultured with PD-L1 aAPC/CHO-K1 cells); type: cell-based; conditions: T-cell; for EC50: PD-1 Jukat T cells + PD-L1 aAPC/CHO-K1 cells, 6 h co-culture, ONE-Glo luciferase readout; for Emax: maximum % Activity relative to atezolizumab (set to 100%)
Protocol: Experiment 1: Detecting the Inhibitory Activity of Compounds on the PD1/PD-L1 Pathway at the Cellular Level Using the PD1/PD-L1 Blockade Bioassay Method
PD-1 Jukat T cells were revived and cultured with 1640 medium containing 100 μg/mL Hygromycin B, […] Puromycin, 10% FBS and 1% dual antibody; PD-L1 aAPC/CHO-K1 cells were revived and cultured with F12K medium containing 100 μg/mL Hygromycin B, 200 μg/mL G418, 10% FBS and 1% dual antibody.
The revived cells need to be passaged 2-3 times. When the cells enter the exponential growth phase with good growth status, the PD-L1 aAPC/CHO-K1 was digested with trypsin, and the cells were resuspended in F12K containing 5% FBS and adjusted to a density of 5×10^5 cells/mL. 20 μl/well were plated in a 384-well plate (10,000 cells/well) and incubated in an incubator overnight for 16-20 h.
a Preparation of compound stock solution: Dissolve the compound to be tested in DMSO to prepare a 20 mM stock solution.
b Compound gradient dilution: dilute the compound in 1640 medium containing 5% FBS without antibiotics or phenol red, and make 3-fold gradient dilutions to prepare 10 concentration gradients (2×).
c Adding drugs: Take out the cell culture plate, discard the supernatant, add 20 μl/well of the prepared compound, and incubate in the incubator for 1.5 h.
PD-1 Jukat T cells were collected, washed once with PBS, and resuspended in 1640 medium containing 5% FBS without antibiotics or phenol red. The density was adjusted to 1×10^6 cells/mL. 20 μl PD-1 Jukat T cells (20,000 cells/well) were added to each well and incubated in the incubator for 6 h.
ONE-Glo™ Luciferase Assay reagent was thawed to room temperature in advance and then added to a 384-well plate at 40 µl/well. Incubate in the dark for 15 minutes and read the […] signal on a plate reader.
[formula] • Among them, % Activity: % Activity • RLU: Resulting Luminescence unit • RLUvehicle: Average RLU value of negative control wells on each plate • RLUpositive: Average RLU value of positive control wells on each plate • Vehicle control: DMSO (0.1%) corresponding to the test value was used as negative control (its % Activity was 0%); • Positive control: The highest detection value at the atezolizumab administration concentration was used as the positive control (its % Activity was 100%). • (2) EC50 value calculation method: The EC50 value was obtained by the nonlinear fitting formula of Graph Pad Prism 8.0 software. The calculation formula is as follows:
Y=Bottom+(Top−Bottom)/(1+10^((Log EC50−X)×HillSlope)) • X: log of activator concentration (logarithm of compound concentration); Y: % Activity • (3) Emax definition: The maximum % Activity value corresponding to the maximum activation value of the compound relative to atezolizumab (the activation value is set to 100%).

| Compound | F ([1]; ig (oral), 5 mg/kg) | AUC(0-t) ([1]; ig (oral), 5 mg/kg) | Cmax ([1]; ig (oral), 5 mg/kg) | half-life ([1]; ig (oral), 5 mg/kg) | AUC(0-t) ([1]; iv, 1 mg/kg) | Cmax ([1]; iv, 1 mg/kg) | clearance ([1]; iv, 1 mg/kg) | half-life ([1]; iv, 1 mg/kg) | Vd ([1]; iv, 1 mg/kg) | EC50 (PD1/PD-L1 pathway) | Emax (PD1/PD-L1 pathway) |
| --- | --- | --- | --- | --- | --- | --- | --- | --- | --- | --- | --- |
| [2H]C([2H])([2H])N(Cc1ncc(-c2cccc(-c3cccc(Nc4nc(C(F)F)nc5cc(CN6CC[C@@H](O)C6)cnc45)c3C)c2Cl)cc1OC)C[C@H]1CC[C@H](C(=O)O)CC1 [Example 38, (1r,4r)-4-((((5-(2-chloro-3′-((2-(difluoromethyl)-7-(((R)-3-hydroxypyrrolidin-1-yl)methyl)pyrido[3,2-d]pyrimidin-4-yl)amino)-2′-methyl-[1,1′-biphenyl]-3-yl)-3-methoxypyridin-2-yl)methyl)(methyl-d3)amino)methyl)cyclohexane-1-carboxylic acid] | 57.8% | 25900 ng·h/mL | 1850 ng/mL | 6.1 h | 8890 ng·h/mL | 621 ng/mL | 1.7 mL/min/kg | 6.6 h | 0.91 L/kg |  |  |
| COc1nc(-c2cccc(-c3cccc(Nc4nc(C(F)F)nc5cc(CN6CC[C@@H](O)C6)cnc45)c3C)c2Cl)ccc1CN1CCC(C(=O)O)CC1 [Example 40, (R)-1-((6-(2-chloro-3′-((2-(difluoromethyl)-7-((3-hydroxypyrrolidin-1-yl)methyl)pyrido[3,2-d]pyrimidin-4-yl)amino)-2′-methyl-[1,1′-biphenyl]-3-yl)-2-methoxypyridin-3-yl)methyl)piperidine-4-carboxylic acid] | 23% | 15100 ng·h/mL | 1260 ng/mL | 4.1 h | 12900 ng·h/mL | 1870 ng/mL | 1.3 mL/min/kg | 4.5 h | 0.43 L/kg | 57.7 nM | 121% |
| COc1nc(-c2cccc(-c3cccc(Nc4nc(C(F)F)nc5cc(CN6CC[C@@H](O)C6)cnc45)c3C)c2Cl)cnc1CN(C)[C@H]1CC[C@H](C(=O)O)CC1 [Example 11, (1r,4r)-4-(((5-(2-chloro-3′-((2-(difluoromethyl)-7-(((R)-3-hydroxypyrrolidin-1-yl)methyl)pyrido[3,2-d]pyrimidin-4-yl)amino)-2′-methyl-[1,1′-biphenyl]-3-yl)-3-methoxypyrazin-2-yl)methyl)(methyl)amino)cyclohexane-1-carboxylic acid] | 52.9% | 16700 ng·h/mL | 1630 ng/mL | 4.3 h | 6370 ng·h/mL | 1100 ng/mL | 2.6 mL/min/kg | 3.9 h | 0.75 L/kg | 20.4 nM | 98.5% |
| COc1nc(-c2cccc(-c3cccc(Nc4nc(C(F)F)nc5cc(CN6CC[C@@H](O)C6)cnc45)c3C)c2Cl)ccc1CN(C)C[C@H]1CC[C@H](C(=O)O)CC1 [Example 17, (1r,4r)-4-((((6-(2-chloro-3′-((2-(difluoromethyl)-7-(((R)-3-hydroxypyrrolidin-1-yl)methyl)pyrido[3,2-d]pyrimidin-4-yl)amino)-2′-methyl-[1,1′-biphenyl]-3-yl)-2-methoxypyridin-3-yl)methyl)(methyl)amino)methyl)cyclohexane-1-carboxylic acid] | 55% | 27000 ng·h/mL | 1980 ng/mL |  | 9760 ng·h/mL | 675 ng/mL | 1.6 mL/min/kg | 7.5 h | 0.95 L/kg | 109 nM | 94.1% |
| COc1nc(-c2cccc(-c3cccc(Nc4nc(C(F)F)nc5cc(CN6CC[C@@H](O)C6)cnc45)c3C)c2Cl)ccc1CN(C)[C@H]1CC[C@H](C(=O)O)CC1 [Example 1, (1r,4r)-4-(((6-(2-chloro-3′-((2-(difluoromethyl)-7-(((R)-3-hydroxypyrrolidin-1-yl)methyl)pyrido[3,2-d]pyrimidin-4-yl)amino)-2′-methyl-[1,1′-biphenyl]-3-yl)-2-methoxypyridin-3-yl)methyl)(methyl)amino)cyclohexane-1-carboxylic acid] | 32% | 12300 ng·h/mL | 935 ng/mL | 4.9 h | 7710 ng·h/mL | 877 ng/mL | 2.1 mL/min/kg | 5.4 h | 0.82 L/kg | 44 nM | 98.2% |
